Source: patent US10822376B2, “Biologically active peptides” (Baxalta Incorporated, priority 2008, dated 2020)
Values after ≈ are worked out from the molar mass of the structure shown. Like-named read-outs stand apart in the source and are kept apart here. Where a SMILES comes first, the peptide text is derived from it. [ ]: non-standard residue; d: D form.

Legend:
[1] = system: human FVIII inhibited plasma; experiment: Defined Intrinsic Thrombin Generation Assay (DITGA, triggered by FXIa and phospholipids); assay type: biochemical; conditions: for Activity in the Defined Intrinsic Thrombin Generation Assay: summary
[2] = system: Factor X deficient human plasma; experiment: DDPTGA (reagent B) in FX depleted plasma; conditions: compounds at 50 μM and 80, 90 or 100 μM
Protocol: (§1) The Defined Dual-Pathway Thrombin Generation Assay is performed as described below, using a commercial test kit (Technothrombin TGA, Technoclone GmbH, Vienna, Austria). […] USA) are incubated four minutes at 37° C. Preferably, Reagent C high is used. Thrombin generation is started by the addition of 40 μl of one of several types of human plasma (37° C.). […] By deviating the original fluorescence data the amount of generated thrombin is calculated from a standard curve constructed using a concentration range of thrombin.
(§2) The in vitro thrombin generation assay based on the cleavage of Z-GGR-AMC to release the fluorophore AMC, described in the specific description, i.e. the Defined Dual-Pathway Thrombin Generation Assay was used to characterise the effect of the compounds in several depleted human plasmas. […] 10 μl peptide dilution, 40 μl TGA substrate and 40 μl plasma were used as described in the specific description.
(§3) The plasmas used in the experiments were fresh frozen and were deficient in Factor V, Factor VII/VIIa, Factor VIII, Factor X or Factor XI (George King Bio-Medical, Inc.). Residual coagulation factor levels of deficient plasmas were specified as less than 1%.
(§4) For each depleted plasma used in the experiments, compounds were tested at two concentrations, namely 50 μM and 80, 90 or 100 μM. A negative control was used, in which no test compound was included.

[3] = system: Factor VII/VIIa deficient human plasma; experiment: DDPTGA (reagent B) in FVII depleted plasma; conditions: compounds at 50 μM and 80, 90 or 100 μM
Protocol: as §1, §2, §3, §4

[4] = system: Factor VIII deficient human plasma; experiment: DDPTGA (reagent B) in FVIII depleted plasma; assay type: biochemical; conditions: compounds at 50 μM and 80, 90 or 100 μM; further: key: '+' means stimulates; '−' means does not stimulate
Text: Preferably, Reagent C high is used.

[5] = system: FVIII inhibited plasma; experiment: Defined Dual-Pathway Thrombin Generation Assay (DDPTGA, reagent C high), FVIII inhibited plasma; assay type: biochemical, human; conditions: for Peak IIa FEIBA EU / Peak IIa FVIIa EU / Peak Time FEIBA EU / Peak Time FVIIa EU: FVIII inhibited plasma; for Activity in the Defined Dual-Pathway Thrombin Generation Assay: summary, FVIII inhibited or deficient plasma
[6] = system: Factor XI deficient human plasma; experiment: DDPTGA (reagent B) in FXI depleted plasma; conditions: compounds at 50 μM and 80, 90 or 100 μM
Protocol: as §1, §2, §3, §4

[7] = system: FVIII deficient plasma; experiment: Defined Dual-Pathway Thrombin Generation Assay (DDPTGA, reagent C high), FVIII deficient plasma; assay type: biochemical, human; conditions: for Peak IIa FVIII EU / Peak Time FVIII EU: FVIII deficient plasma
[8] = in vitro; conditions: human, plasma
Protocol: Half-life of compounds in human or mouse plasma, or percentage of compound remaining after an incubation in human or mouse plasma, is determined as follows. In the experimental procedure, test compound concentrations are 5 μM, prepared from test compound stock solutions of 10 mM in DMSO. Propantheline is used as a standard. […] All of the samples are incubated in a water bath at 37° C. […] After a chosen duration of incubation (generally at t=60 min) each sample is mixed with a further 500 μl acetonitrile. The samples are mixed on a vortex mixer for 30 s and placed on ice for 10 min and collected for centrifugation. Samples are centrifuged at 20 000 g for 10 min at 4° C. 500 μl supernatant is transferred into a new 1.5 ml Eppendorf tube and an equal volume of acetonitrile is added. The sample is mixed again for 30 s using a vortex mixer. After a second centrifugation step (20 000 g, 10 min, 4° C.) 250 μl of the supernatant is transferred into HPLC glass vials for HPLC-MS analysis. Conditions for performing HPLC are as follows: Injection-volume is set to 20 μl. Temperature is set to 25° C. A linear gradient from 95:5 to 5:95 water:acetonitrile both containing 0:05% trifluoroacetic acid (TFA) (v/v) is applied at a flow rate of 0.3 ml/min for 10 min. The PDA-detector is scanning from 210-400 nm.

[9] = physchem; conditions: for solubility kinetic: pH 7.4
Protocol: Aqueous solubility is measured in PBS at pH 7.4 either in an assay provided by Cerep (France, Catalog ref. 900-11a) or according to the following protocol. The aim of this procedure is to determine the solubility of a drug candidate (analyte) in a buffer, by estimating the saturation concentration of the candidate in the buffer using HPLC. A known concentration of the candidate in an organic solvent is used as a standard. A stock solution of the test compound in DMSO must be prepared as the initial step. […] DMSO stock-solutions are diluted to a final concentration of 50 μM with DMSO (100% reference-solution) and buffer (test-solution) to provide a minimum volume of 500 μL of each. Both solutions are shaken at 25° C. at 950 rpm in an Eppendorf “thermomixer comfort” for at least 60 min. The suspension is centrifuged at 22 330 g for at least two min and 100 μL of the supernatant is transferred into polypropylene-inserts placed in glass vials and closed by snap-ring caps. Alternatively the solutions can be prepared in microtiter plates with half of the previously described starting solvent volume. For the determination of the solubility all samples are analyzed by HPLC in triplicate. Injection volume is at least 10 μL. The obtained data are analyzed by “Chemstation-software” (Agilent, Waldbronn, Germany). The peaks from the analyses of the organic solutions are integrated and the arithmetic mean is reported as “AUC 1” (reference area of known amount injected at the HPLC). […] The ratio of the mean “AUC 2” and “AUC 1” is calculated and thus the percentage of the dissolved amount of compound in buffer is obtained and solubility can be reported in μM.

[10] = Acute toxicology in mice; assay type: in vivo, mouse; conditions: C57BL/6, mouse, in vivo, 60 minutes following administration, read-out: Max dose within toxicity category: No detected toxicity
Protocol: Toxicology studies involved monitoring of attitude changes due to toxic effects immediately after application and twice daily; monitoring of body weight; histopathology of brain, heart, kidney, liver, lung. Experiments were performed in C57131/6 mice.
C57BI/6 mice weighing 18-20 g were administered with compounds in a suitable vehicle i.v. in the tail vein or i.p. or s.c at 10 ml/kg. Quantities of the compounds administered were in the range of 0.075 to 125 mg/kg (i.v.), 15-125 mg/kg (i.p.) and 125 mg/kg (s.c.). There were four mice per group. Attitude changes due to toxic effects were monitored immediately after administration of the compound and for 60 minutes thereafter. Body weight was monitored for five days after administration. At day 5 after administration, mice were culled and autopsy performed. Brain, heart, kidney, liver, lung and spleen were biopsied.
In the above table, the maximum dose tested giving rise to no detected toxicity, some toxicity or severe toxicity over the period of 60 minutes following administration is reported. “No detected toxicity” indicates no acute toxic observations.

[11] = system: Factor V deficient human plasma; experiment: DDPTGA (reagent B) in FV depleted plasma; conditions: compounds at 50 μM and 80, 90 or 100 μM
Protocol: as §1, §2, §3, §4

[12] = pH 7.4, Solubility in PBS pH 7.4

| Compound | Thrombin peak time given as FEIBA equivalent activity ([1]; peptide 6.25 μM) | Thrombin peak time given as FEIBA equivalent activity ([1]; peptide 12.5 μM) | Thrombin peak time given as FEIBA equivalent activity ([1]; peptide 25 μM) | Thrombin peak time given as FEIBA equivalent activity ([1]; peptide 50 μM) | Thrombin peak time given as FEIBA equivalent activity ([1]; peptide 100 μM) | Activity in the Defined Intrinsic Thrombin Generation Assay [1] | Stimulation of thrombin generation [2] | Stimulation of thrombin generation [3] | Stimulation of thrombin generation [4] | Peak IIa FEIBA EU ([5]; peptide 50 μM) | Peak IIa FVIIa EU ([5]; peptide 50 μM) | Peak Time FEIBA EU ([5]; peptide 50 μM) | Peak Time FVIIa EU ([5]; peptide 50 μM) | Stimulation of thrombin generation [6] | Peak IIa FVIII EU ([7]; peptide 50 μM) | Peak Time FVIII EU ([7]; peptide 50 μM) | solubility kinetic [9] | solubility ([9]; pH 7.4, Aqueous solubility) | NOAEL at 1 h ([10]; iv) | Stimulation of thrombin generation [11] | further results |
| --- | --- | --- | --- | --- | --- | --- | --- | --- | --- | --- | --- | --- | --- | --- | --- | --- | --- | --- | --- | --- | --- |
| Ac-RMKFDVWDLYFEIVW-NH2 [Peptide A01] | 97 mU/ml | 138 mU/ml | 160 mU/ml | 227 mU/ml | 338 mU/ml | possess activity | − | + | + | BLS (BLS = below lowest standard.) | BLS (BLS = below lowest standard.) | BLS (BLS = below lowest standard.) | BLS (BLS = below lowest standard.) | + | BLS (BLS = below lowest standard.) | BLS (BLS = below lowest standard.) | 9 µM | 9 µM | 20 mg/kg | − | Peak IIa FEIBA EU ([5]; peptide 90 μM): BLS (BLS = below lowest standard.); Peak IIa FVIIa EU ([5]; peptide 90 μM): BLS (BLS = below lowest standard.); Peak Time FEIBA EU ([5]; peptide 90 μM): BLS (BLS = below lowest standard.); Peak Time FVIIa EU ([5]; peptide 90 μM): BLS (BLS = below lowest standard.); Peak IIa FVIII EU ([7]; peptide 90 μM): BLS (BLS = below lowest standard.); Peak Time FVIII EU ([7]; peptide 90 μM): BLS (BLS = below lowest standard.); remaining at 0.5 h, 5 μM [8]: 58%; NOAEL at 1 h ([10]; ip): 20 mg/kg |
| Ac-PMKFDVWDLYFEIVW-NH2 [Peptide A02] | 577 mU/ml | 674 mU/ml | 780 mU/ml | 1018 mU/ml | 1305 mU/ml | possess activity | + | + | + | BLS (BLS = below lowest standard.) | BLS (BLS = below lowest standard.) | 10.2 mU/ml | 0.4 nM | + | BLS (BLS = below lowest standard.) | BLS (BLS = below lowest standard.) | 35 µM | 35 µM | 25 mg/kg | − | Activity in the Defined Dual-Pathway Thrombin Generation Assay [5]: possess activity; remaining at 0.5 h, 5 μM [8]: 84%; solubility [9, 12]: ≥ 25 µM; NOAEL at 1 h ([10]; ip): 25 mg/kg |
| H-ERMEFDVWDLYFEIVW-NH2 [Peptide A09] | 600 mU/ml | 742 mU/ml | 896 mU/ml | 1170 mU/ml | 1365 mU/ml | possess activity | + | + | + | 8.6 mU/ml | BLS (BLS = below lowest standard.) | BLS (BLS = below lowest standard.) | BLS (BLS = below lowest standard.) | + | BLS (BLS = below lowest standard.) | 27.2 mU/ml | 63 µM | 63 µM | 15 mg/kg | − | Peak IIa FEIBA EU ([5]; peptide 25 μM): BLS (BLS = below lowest standard.); Peak IIa FVIIa EU ([5]; peptide 25 μM): BLS (BLS = below lowest standard.); Peak Time FEIBA EU ([5]; peptide 25 μM): 7.9 mU/ml; Peak Time FVIIa EU ([5]; peptide 25 μM): 0.2 nM; Activity in the Defined Dual-Pathway Thrombin Generation Assay [5]: possess activity; Peak IIa FVIII EU ([7]; peptide 25 μM): BLS (BLS = below lowest standard.); Peak Time FVIII EU ([7]; peptide 25 μM): 15.6 mU/ml; remaining at 0.5 h, 5 μM [8]: 67%; solubility [9, 12]: ≥ 25 µM |
| CC[C@@H](C)[C@@H](NC(=O)[C@@H](CS)NC(C)=O)C(=O)N[C@H](CCSC)C(=O)N[C@H](Cc1ccccc1)C(=O)N[C@H](Cc1c[nH]c2ccccc12)C(=O)N[C@H](Cc1ccc(O)cc1)C(=O)N[C@H](CC(=O)O)C(=O)N[C@H](CCC(=O)O)C(=O)N[C@H](Cc1ccc(O)cc1)C(=O)N[C@H](CCC(=O)O)C(N)=O [Peptide B03, Ac-cimfwydeye-NH2] (Ac-[dC][dI][dM][dF][dW][dY][dD][dE][dY][dE]-NH2) | 454 mU/ml | 602 mU/ml | 738 mU/ml | 1030 mU/ml | 1394 mU/ml | possess activity | + | + | + |  |  |  |  | + |  |  | 114 µM (≈ 164 µg/mL) | 114 µM (≈ 164 µg/mL) | 1.5 mg/kg | − | Peak IIa FEIBA EU ([5]; peptide 40 μM): 7.2 mU/ml; Peak IIa FVIIa EU ([5]; peptide 40 μM): 0.2 nM; Peak Time FEIBA EU ([5]; peptide 40 μM): BLS (BLS = below lowest standard.); Peak Time FVIIa EU ([5]; peptide 40 μM): BLS (BLS = below lowest standard.); Peak IIa FEIBA EU ([5]; peptide 100 μM): 12.3 mU/ml; Peak IIa FVIIa EU ([5]; peptide 100 μM): 0.6 nM; Peak Time FEIBA EU ([5]; peptide 100 μM): BLS (BLS = below lowest standard.); Peak Time FVIIa EU ([5]; peptide 100 μM): BLS (BLS = below lowest standard.); Activity in the Defined Dual-Pathway Thrombin Generation Assay [5]: possess activity; Effect on both peak time and peak IIa of thrombin generation ([7]; DDPTGA, comment on Table 10): positively affected; Peak IIa FVIII EU ([7]; peptide 40 μM): 4.8 mU/ml; Peak Time FVIII EU ([7]; peptide 40 μM): 8.7 mU/ml; Peak IIa FVIII EU ([7]; peptide 100 μM): 5.3 mU/ml; Peak Time FVIII EU ([7]; peptide 100 μM): 7.5 mU/ml; NOAEL at 1 h ([10]; ip): 15 mg/kg |
